Test results: patent US20250136997A1, “COMPOSITIONS FOR SEQUESTERING ISOAMYL AMINE AND METHODS OF USE THEREFOR” (University of Louisville Research Foundation, Inc., priority 2023, published 2025)

Key:
[1] = Electroencephalography (EEG) recording in mice; format: in vivo, mouse
Method: Electroencephalography (EEG) recording in mice. Groups of mice were anesthetized by peritoneal administration of ketamine (90 mg/kg) and xylazine (10 mg/kg) mixture. Mice that were not responsive to nociceptive stimuli were consider anesthetized and were administered the analgesic buprenorphine (0.1 mg/kg). The fur of the skull area was removed, placed on surgical bench and skin area were cleaned with betadine and 70% ethyl alcohol. The midline scalp skin was lifted using forceps and an incision made from the frontal cranial bone to the back of the parietal cranial bones. The skin was push aside and cleaned with betadine using cotton swabs. The skull was cleaned and marked for placement of electrodes. Two craniotomies 0.25-0.5 mm in diameter on the side of each hemisphere were established a 3 mm distance from the midline vertical fissure in the frontal and occipital regions; a hand-held drill (Kopf) with matching drill bits (0.5 mm) was used for the craniotomies. Four electrodes were placed in appropriate skull holes over the frontal cortex (FC) and occipital cortex (OC). A ground/reference electrode was also implanted in the most anterior region of cerebellum. Thus, two independent EEG channels were created for FC and OC on each side of the hemisphere. […]

S100A8 promoter = assay: Luciferase reporter with S100A8 promoter in microglia; format: cell-based, mouse
Source text: Construction of the S100A8 promoter into the luciferase plasmid vector. To determine the activity of IAA on the promoter of S100A8, a sequence containing 1,037 bp of S100A8 promoter (GENBANK® Accession #: L76381) upstream −1,037 to −1 from transcription start site (TSS) was constructed into the luciferase C1 vector (Addgene, #163523). A DNA fragment was generated by PCR amplification with genomic DNA extracted from mouse liver tissue using DNeasy Blood & Tissue Kits (Qiagen, #69504). PCR was conducted using Q5 High-Fidelity PCR kit (New England Biolabs® Inc.) with the primers 51008A-prom, pLuc163523 and genomic DNA, and luciferase C1 plasmid as the template, respectively. The two PCR products purified using the Gel extraction kit (Qiagen) were seamlessly assembled into the pLuc-S100p using the NEBuilder HiFi DNA Assembly Cloning Kit (New England Biolabs® Inc.). The plasmid pLuc-S100p was transformed into DH5a and selected using kanamycin resistance. The DNA sequence was confirmed by DNA sequencing.
Site-directed mutagenesis within the S100A8 promoter. A mutant of IAA with the potential binding site on the S100A8 promoter was generated with the oligonucleotide primer S1008A-prom-Mut, which was designed to specifically disrupt the putative S100A8 binding site at its promoter (FIG. 3C). Q5® Site-Directed Mutagenesis Kit (New England Biolabs, MA, USA) was used in conjunction with specific primers (Table 3) to introduce S100A8 promoter mutations in the pLuc-S100p construct according to the manufacturer's instructions. After mutant strand synthesis and ligation, resultant plasmids were introduced into E. coli and transformants were selected using kanamycin resistance. The DNA sequence of mutants was confirmed by DNA sequencing.

promoter of S100A8 = assay: Chromatin immunoprecipitation assay with biotinylated IAA; format: binding, mouse; conditions: BV2 genomic DNA
Method: Chromatin immunoprecipitation assay. To identify the interaction of IAA and promoter of S100A8, 1 mg of IAA was labeled with biotin using the EZ-Link NHS-PEG4 Biotinylation kit (Thermo Fisher Sci., #21455) and excess biotin was removed using a desalting column. Biotinylated IAA was incubated with microglia BV2 cells for 3 h at 37° C. following 37% formaldehyde (final 1%) in 1 ml PBS for one more hour for cross-linking. The cell lysate was collected in 1 ml of RIPA buffer and sonication was used to shear the chromatin into 0.5˜1 kb fragment. Streptavidin Dynabeads ([…]) were added to the DNA samples for 1 h at room temperature. PBS replaced the DNA and was incubated with the beads as the control to exclude non-specific interactions. After washing beads with PBS, biotinylated IAA was eluted from the beads with the biotin (4 mg/ml) in 25mMTris-HCL containing 0.3MNaCl (pH 8.5) as the elution buffer at room temperature for 1 h or 95° C. for 5 min. The supernatant was collected and the DNA was purified with acetic acid (2%, v/v) and dissolved into […] of H2O. Two ml of DNA was used in quantitative PCR reactions using the primers of S100A8-ChIP in Table 3.

[2] = Surface plasmon resonance (SPR) of biotin-labeled oligos with IAA; format: binding; conditions: biotin labeled oligo on streptavidin sensor chip
Method: Surface plasmon resonance (SPR). To identify the binding activity of the metabolite IAA and S100A8 promoter sequence, SPR experiments were conducted on an OPENSPR™ (Nicoya, Lifesciences, CA). Experiments were performed on a streptavidin sensor (Nicoya, Lifesciences). SPR was run at a flow rate of 20 μl/min using HBS running buffer (20 mM HEPES, 150 mM NaCl, pH 7.4). First, the streptavidin sensor chip was cleaned with octyl β-D-glucopyranoside (40 mM) and CHAPS (20 mM). 200 μl of biotin-conjugated oligos (1 μg/ml, Table 5) were injected on the sensor chip for 10 minutes until a stable resonance was obtained. After immobilization of bio-oligo, the surface was blocked with BSA (3%) in running buffer. After a stable signal was obtained, IAA (10 nM) was run over the immobilized bio-oligo until a stable resonance was obtained. A negative control test was also performed by injecting IAA onto a blank sensor chip to check for non-specific binding. The sensograms were analyzed using TraceDrawer kinetic analysis software.

Compound	EEG rhythms coherence ([1]; IAA mice vs control, phage to aged mice)	distributions of DSA (bilateral symmetry) ([1]; IAA-treated young mice, phage-treated aged mice)	effect of IAA on the S100A8 transcription (luciferase) (S100A8 promoter; p53 KO microglia with additional p53)	IAA-induced S100A8 activation (luciferase) (S100A8 promoter; p53 deficiency (p53 KO microglia))	luciferase activity, S100A8 promoter sequence (S100A8 promoter; wild-type promoter, microglia, 12 h after IAA)	interaction with promoter of S100A8 genomic DNA (ChIP) (promoter of S100A8)	interaction with IAA (SPR) [2]
CC(C)CCN [IAA, isoamylamine]	incoherence	asymmetric bilaterally	recovered	attenuated	activated	demonstrated	–
S100p1-G: CTGTGGGCAG CTGGCCAAGC (SEQ ID NO: 8), S100A8 promoter −57 . . . −38 (DNA CTGTGGGCAGCTGGCCAAGC; chemistry not given here)	–	–	–	–	–	–	targeted by IAA
